Test results taken from ChEMBL document CHEMBL4433261, “Synthesis of peptidomimetics and chemo-biological tools for CD95/PLCγ1 interaction analysis” (Bioorg Med Chem Lett, 2019).
Activity calls are given as the source filed them. No cut-off for these calls is given here.

Tests used:
Homo sapiens = species: Homo sapiens; experiment: Selectivity ratio of IC50 for human full length HA-tagged CD95/FADD (unknown origin) protein-protein interaction to IC50 for human full length HA-tagged CD95/human full length Myc-tagged PLCgamma1 protein-protein interaction
[1] = Inhibition of human full length HA-tagged CD95/human full length Myc-tagged PLCgamma1 protein-protein interaction transfected in HEK293T cells incubated for 4 hrs by renilla luciferase based protein-fragment complementation assay; format: cell-based
[2] = Inhibition of human full length HA-tagged CD95/FADD (unknown origin) protein-protein interaction transfected in HEK293T cells incubated for 4 hrs by renilla luciferase based protein-fragment complementation assay; format: cell-based
CCRF-CEM = experiment: Cytotoxicity in human CEM cells assessed as reduction in cell viability incubated for 24 hrs by MTT assay; format: cell-based
[3] = molecular target: T1, 1-phosphatidylinositol 4,5-bisphosphate phosphodiesterase gamma-1 (Homo sapiens) (UniProt P19174); experiment: (§1) Binding affinity to human full length Myc-tagged PLCgamma1 transfected in HEK293T cells by pull down assay; format: cell-based
T1 sequence (whole entry): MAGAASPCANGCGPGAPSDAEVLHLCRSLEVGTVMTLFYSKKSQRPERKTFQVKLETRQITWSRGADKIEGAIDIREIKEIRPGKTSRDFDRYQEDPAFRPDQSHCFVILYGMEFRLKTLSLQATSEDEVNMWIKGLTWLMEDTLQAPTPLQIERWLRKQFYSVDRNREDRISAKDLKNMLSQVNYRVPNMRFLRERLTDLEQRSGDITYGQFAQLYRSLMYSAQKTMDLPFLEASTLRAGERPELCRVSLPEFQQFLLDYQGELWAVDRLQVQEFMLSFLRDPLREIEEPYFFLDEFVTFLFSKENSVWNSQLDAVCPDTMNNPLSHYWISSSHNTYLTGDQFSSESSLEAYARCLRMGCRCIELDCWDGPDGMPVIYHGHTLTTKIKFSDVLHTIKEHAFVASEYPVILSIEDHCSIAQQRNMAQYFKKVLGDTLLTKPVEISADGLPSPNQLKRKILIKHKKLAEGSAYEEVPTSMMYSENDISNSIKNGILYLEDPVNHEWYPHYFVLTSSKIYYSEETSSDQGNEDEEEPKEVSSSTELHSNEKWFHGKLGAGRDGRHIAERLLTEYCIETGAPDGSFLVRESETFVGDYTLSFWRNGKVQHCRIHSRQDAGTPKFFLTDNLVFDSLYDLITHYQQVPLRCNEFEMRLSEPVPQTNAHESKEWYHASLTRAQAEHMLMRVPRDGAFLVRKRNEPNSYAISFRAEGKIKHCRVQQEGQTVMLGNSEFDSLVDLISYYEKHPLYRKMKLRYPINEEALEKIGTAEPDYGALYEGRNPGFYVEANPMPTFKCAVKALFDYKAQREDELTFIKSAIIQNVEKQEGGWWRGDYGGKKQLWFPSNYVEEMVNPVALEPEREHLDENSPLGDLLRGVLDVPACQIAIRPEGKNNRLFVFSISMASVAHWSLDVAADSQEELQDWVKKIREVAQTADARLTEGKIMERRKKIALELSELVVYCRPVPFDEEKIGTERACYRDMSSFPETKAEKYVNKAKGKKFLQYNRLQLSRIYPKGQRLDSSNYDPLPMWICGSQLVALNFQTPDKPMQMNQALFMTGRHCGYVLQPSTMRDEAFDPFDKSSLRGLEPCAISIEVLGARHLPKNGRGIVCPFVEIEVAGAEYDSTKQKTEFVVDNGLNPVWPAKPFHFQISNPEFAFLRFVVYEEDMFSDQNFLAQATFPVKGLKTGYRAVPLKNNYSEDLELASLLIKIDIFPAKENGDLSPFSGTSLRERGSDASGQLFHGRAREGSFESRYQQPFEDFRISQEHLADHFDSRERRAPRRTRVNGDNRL

[4] = molecular target: T2, Tumor necrosis factor receptor superfamily member 6 (Homo sapiens) (UniProt P25445); experiment: Inhibition of s-CD95L(unknown origin)-stimulated cell migration of human MDA-MB-231 cells at 10 uM incubated for 24 hrs by Giemsa-staining based assay
T2 sequence (whole entry): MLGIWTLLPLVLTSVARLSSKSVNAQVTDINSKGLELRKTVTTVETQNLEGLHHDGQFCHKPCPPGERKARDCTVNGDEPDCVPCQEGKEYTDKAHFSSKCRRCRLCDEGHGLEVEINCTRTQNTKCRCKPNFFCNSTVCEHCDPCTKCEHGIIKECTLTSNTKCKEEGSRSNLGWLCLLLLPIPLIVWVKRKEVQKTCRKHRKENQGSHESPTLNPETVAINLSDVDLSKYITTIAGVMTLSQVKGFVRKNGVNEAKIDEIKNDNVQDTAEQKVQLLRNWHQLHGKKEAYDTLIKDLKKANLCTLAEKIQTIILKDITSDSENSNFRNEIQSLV

[5] = molecular target: T2, Tumor necrosis factor receptor superfamily member 6 (Homo sapiens); experiment: Inhibition of s-CD95L(unknown origin)-stimulated cell migration of human Th17 cells at 10 uM incubated for 24 hrs by Boyden chambers assay
[6] = molecular target: T2, Tumor necrosis factor receptor superfamily member 6 (Homo sapiens); experiment: Inhibition of s-CD95L(unknown origin)-stimulated cell migration of human MDA-MB-231 cells at 10 uM incubated for 24 hrs by Boyden chambers assay; format: cell-based
[7] = Half life in human whole blood; format: ADME, tissue-based
[8] = molecular target: T3, 1-phosphatidylinositol 4,5-bisphosphate phosphodiesterase gamma-1 (Homo sapiens, UniProt P19174); experiment: as §1; format: cell-based
T3 sequence (P19174 whole entry): T1 sequence (whole entry)

[9] = molecular target: T2, Tumor necrosis factor receptor superfamily member 6 (Homo sapiens); experiment: Inhibition of s-CD95L(unknown origin)-stimulated cell migration of human MDA-MB-231 cells at 1 uM incubated for 24 hrs by Boyden chambers assay; format: cell-based
[10] = molecular target: T2, Tumor necrosis factor receptor superfamily member 6 (Homo sapiens); experiment: Inhibition of s-CD95L(unknown origin)-stimulated cell migration of human Th17 cells at 1 uM incubated for 24 hrs by Boyden chambers assay
[11] = molecular target: T2, Tumor necrosis factor receptor superfamily member 6 (Homo sapiens); experiment: Inhibition of s-CD95L(unknown origin)-stimulated cell migration of human MDA-MB-231 cells at 1 uM incubated for 24 hrs by Giemsa-staining based assay

Molecule | Ratio IC50 (Homo sapiens) | IC50 [1] [µM] | IC50 ([2]; read-out: IC50) [µM] | also measured
N=C(N)NCCCCC(=O)N(CCNC(=O)[C@H](Cc1c[nH]cn1)N(CCNC(=O)[C@H](CCCNC(=N)N)N(CCN)C(=O)CCCC[C@@H]1SC[C@@H]2NC(=O)N[C@@H]21)C(=O)CCCCCN)[C@@H](CCCCN)C(N)=O |  |  |  | Activity [3]: Active
C[C@@H](O)[C@H](N)C(=O)NCCN(C(=O)CCS)[C@@H](CCCNC(=N)N)C(=O)NCCN(C(=O)CCCCCN)[C@@H](Cc1c[nH]cn1)C(=O)NCCN(C(=O)CCCCNC(=N)N)[C@@H](CCCCN)C(N)=O | > 100 | 77 |  | inhibition [4]: Active; half-life [7]: 11 to 11.1 h; inhibition [5]: Active; IC50 [2]: Not Active; inhibition [6]: Active
C[C@@H](O)[C@H](NC(=O)CCCC[C@@H]1SC[C@@H]2NC(=O)N[C@@H]21)C(=O)NCCN(C(=O)CCS)[C@@H](CCCNC(=N)N)C(=O)NCCN(C(=O)CCCCCN)[C@@H](Cc1c[nH]cn1)C(=O)NCCN(C(=O)CCCCNC(=N)N)[C@@H](CCCCN)C(N)=O |  |  |  | EC50 [8]: 25 to 50 µM
H-TCRKHRK-OH | > 100 | 35 |  | inhibition [9]: Active; half-life [7]: 3 to 3.4 h; inhibition [10]: Active; IC50 [2]: Not Active; inhibition [11]: Active

More lines, main results first:

Ratio IC50 (Homo sapiens) | IC50 [1] [µM] | IC50 ([2]; read-out: IC50) [µM] | Molecule | also measured
1.1 | 35 | 39 | CCCCCCCCCCCCCCCCCC(=O)N(CCN)[C@@H](CCCNC(=N)N)C(=O)NCCN(C(=O)CCCCCN)[C@@H](Cc1c[nH]cn1)C(=O)NCCN(C(=O)CCCCNC(=N)N)[C@@H](CCCCN)C(N)=O.O=C(O)C(F)(F)F.O=C(O)C(F)(F)F.O=C(O)C(F)(F)F.O=C(O)C(F)(F)F.O=C(O)C(F)(F)F | Activity (CCRF-CEM): Toxic
1.1 | 400 | 448 | N=C(N)NCCCCC(=O)N(CCNC(=O)[C@@H](N)CS)[C@@H](CCCCN)C(=O)NCCN(C(=O)CCc1c[nH]cn1)[C@@H](CCCNC(=N)N)C(=O)NCCNC(=O)CCCCCN | 
2 | 308 | 629 | C[C@@H](O)CC(=O)N[C@@H](CS)C(=O)NCCN(C(=O)CCCCNC(=N)N)[C@@H](CCCCN)C(=O)NCCN(C(=O)CCc1c[nH]cn1)[C@@H](CCCNC(=N)N)C(=O)NCCNC(=O)CCCCCN | 
1.4 | 229 | 319 | C[C@@H](O)CC(=O)N(CCN)[C@@H](CS)C(=O)NCCN(C(=O)CCCCNC(=N)N)[C@@H](CCCCN)C(=O)NCCN(C(=O)CCc1c[nH]cn1)[C@@H](CCCNC(=N)N)C(=O)NCCNC(=O)CCCCCN | 
50 | 75 | 3800 | N=C(N)NCCCCC(=O)N(CCNC(=O)[C@H](Cc1c[nH]cn1)N(CCNC(=O)[C@H](CCCNC(=N)N)N(CCN)C(=O)CCS)C(=O)CCCCCN)[C@@H](CCCCN)C(N)=O | inhibition [4]: Active; inhibition [5]: Active; inhibition [6]: Active
